{
  "source": "patent US20240033208A1",
  "about": "“BOTANICAL EXTRACT BLEND FOR USE IN SKIN CARE” (Shaklee Corporation, priority 2022, published 2024)",
  "key": {"[1]": {"tested_on": "preexisting AGEs in collagen", "assay": "Collagen AGE reduction assay", "assay_type": "biochemical", "description": "AGE Reduction—50 μl of ice-cold collagen solution was added to the wells of a 96 well plate. The plate was then incubated overnight at 37C to allow the collagen solution to gel. On the following day, 10 μl of a 500 mM glyceraldehyde solution was added to all of the wells and the plate was incubated for 24 hours in a humidified incubator at 37° C. On the following day 40 μl of either test material (prepared in assay buffer), aminoguanidine (positive control), or assay buffer (negative control) was added to the plate. The plate was then read using a fluorometer (355 nm excitation and 405 nm emission) and then incubated again for 24 hours in a humidified incubator at 37C. On the following day the plate was read again. AGE formation was determined by subtracting the initial fluorescent measurement from the final fluorescent measurement for each sample."}, "[2]": {"tested_on": "AGE formation in collagen", "assay": "Collagen AGE prevention assay", "assay_type": "biochemical", "description": "AGE Prevention—50 μl of ice-cold collagen solution was added to the wells of a 96 well plate. The plate was incubated overnight at 37° C. to allow the collagen solution to gel. On the following day, 40 μl of either test material (prepared in assay buffer), aminoguanidine (positive control), or assay buffer (negative control) was added to the plate. After the materials were added, 10 μl of a 500 mM glyceraldehyde solution was added to all of the wells. The plate was then read using a fluorometer (355 nm excitation and 405 nm emission) and then incubated for 24 hours in a humidified incubator at 37C. On the following day the plate was read again. AGE formation was determined by subtracting the […] for each sample."}, "human recombinant MMP-1": {"target": "T1, human recombinant MMP-1 (Homo sapiens, UniProt P03956)", "T1 sequence (P03956 100-469)": "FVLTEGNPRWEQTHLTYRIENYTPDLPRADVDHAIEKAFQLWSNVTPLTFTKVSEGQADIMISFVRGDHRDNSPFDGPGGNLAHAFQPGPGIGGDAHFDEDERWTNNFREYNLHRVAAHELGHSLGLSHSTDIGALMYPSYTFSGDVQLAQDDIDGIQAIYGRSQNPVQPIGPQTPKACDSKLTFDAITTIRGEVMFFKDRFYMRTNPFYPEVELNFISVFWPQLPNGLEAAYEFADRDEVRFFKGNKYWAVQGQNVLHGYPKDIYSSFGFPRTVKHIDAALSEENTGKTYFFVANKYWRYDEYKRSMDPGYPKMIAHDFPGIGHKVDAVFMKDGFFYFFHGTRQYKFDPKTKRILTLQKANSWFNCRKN", "assay": "Collagenase (MMP-1) inhibition (thiopeptolide/DTNB, 412 nm)", "assay_type": "biochemical", "description": "Matrix Metalloproteinase-1 (MMP-1) is an extracellular protease with an approximate molecular weight of 52-56 kD in its latent form. Upon cleavage of the proenzyme, the 22-46 kD MMP-1 becomes an active enzyme and can degrade many substrates including collagen, gelatin, and entactin. In human skin, increased MMP-1 activity can be induced via some disease states, exposure to UV irradiation or as part of the natural aging process. This can result in an imbalanced state where the degradation of collagen by MMP-1 exceeds its rate of replacement. Therefore, materials that inhibit MMP-1 activity can be beneficial for skin care. To screen inhibitors of MMP-1, human recombinant MMP-1 was incubated in the presence of a thiopeptolide substrate, potential inhibitors, and 5,5′-dithiobis(2-nitrobenzoic acid) (DTNB). When the thiopeptolide substrate is broken down by MMP-1, it releases a sulfhydryl group that can react with DTNB and form 2-nitro-5-thiobenzoic acid, which can be detected spectrophotometrically at 412 nm. Thus, in the presence of inhibitors, absorbance will be decrease relative to the non-inhibited enzyme."}, "elastase": {"tested_on": "elastase", "assay": "Elastase inhibition (fibroblast lysate, STANA substrate, 405 nm)", "assay_type": "biochemical, human", "description": "Human dermal fibroblasts were cultured and used as a source of the elastase enzyme. Elastase was partially purified from fibroblasts by lysing the cells in an elastase buffer and retaining the soluble portion of the lysate. Portions of this fibroblast lysate were then be incubated with test materials and a synthetic elastase substrate, Suc-([…])-p-Nitroaniline (STANA). Elastase acts upon the substrate, releasing p-nitroaniline, which can be detected with a spectrophotometer by measuring absorbance at a wavelength of 405 nm. Inhibition of elastase enzyme is indicated by a decrease in the amount of released p-nitroaniline as compared to the uninhibited enzyme."}, "[3]": {"tested_on": "MatTek EpiDerm tissue (UVB induced CPD formation in genomic DNA)", "assay": "Cyclobutane pyrimidine dimer (CPD) assay, UVB, ELISA", "assay_type": "cell-based, human", "details": "for CPD in genomic DNA: pretreated overnight before UVB", "description": "The testing system used for this assay was the MatTek EpiDerm, a skin model which consists of normal human-derived epidermal keratinocytes cultured to form a multilayered, highly differentiated model of the human epidermis. For this study, tissues were treated topically either overnight with the test materials prior to UVB exposure (pretreat group to assess prevention). Following treatment, DNA was extracted from the EpiDerm tissues and assayed for CPD content using an ELISA based method."}, "[4]": {"details": "ingredients tested individually at the concentrations used in the blends"}},
  "data": [
    {"smiles": "N=C(N)NN", "note": "[Aminoguanidine, aminoguanidine, reference compound]", "values": [
      {"measurement": "Percent AGE Reduction", "setting": "[1]; 8 mM", "value": "33.4 ± 3.3", "unit": "%"},
      {"measurement": "Percent AGE Prevention", "setting": "[2]; 8 mM", "value": "56.8 ± 0.5", "unit": "%"}
    ]},
    {"smiles": "COc1ccc(S(=O)(=O)N(CC(=O)NO)CC(C)C)cc1", "note": "[NNGH, reference compound]", "values": [
      {"measurement": "Percent Inhibition (collagenase)", "setting": "human recombinant MMP-1; 2 uM", "value": "94 ± 3", "unit": "%"}
    ]},
    {"smiles": "CC(C)C[C@H](NP(=O)(O)O[C@@H]1O[C@@H](C)[C@H](O)[C@@H](O)[C@H]1O)C(=O)N[C@@H](Cc1c[nH]c2ccccc12)C(=O)O", "note": "[Phosphoramidon, reference compound]", "values": [
      {"measurement": "Percent Inhibition (elastase)", "setting": "elastase; 0.2 mM", "value": "97 ± 0", "unit": "%"}
    ]},
    {"smiles": "Oc1ccc(/C=C/c2cc(O)cc(O)c2)cc1", "note": "[Resveratrol, 5-[(E)-2-(4-Hydroxyphenyl)ethen-1-yl]benzene-1,3-diol]", "values": [
      {"measurement": "Percent AGE Reduction", "setting": "[1]; 0.0375%", "value": "28.2 ± 1.2", "unit": "%"},
      {"measurement": "Percent AGE Reduction", "setting": "[1]; 0.075%", "value": "32.8 ± 2.8", "unit": "%"},
      {"measurement": "reducing existing AGEs (in words)", "setting": "[1]; [4]", "value": "significantly effective"},
      {"measurement": "Percent Inhibition (elastase)", "setting": "elastase; 0.075%", "value": "30 ± 3", "unit": "%"},
      {"measurement": "Percent Inhibition (elastase)", "setting": "elastase; 0.08%", "value": "33 ± 2", "unit": "%"},
      {"measurement": "elastase inhibition (in words)", "setting": "elastase; summary of Table 10", "value": "effective at inhibiting elastase activity on its own"},
      {"measurement": "Percent AGE Prevention", "setting": "[2]; 0.0375%", "value": "20.8 ± 2.4", "unit": "%"},
      {"measurement": "Percent AGE Prevention", "setting": "[2]; 0.075%", "value": "38.4 ± 7.1", "unit": "%"},
      {"measurement": "preventing AGE formation (in words)", "setting": "[2]; [4]", "value": "significantly effective"},
      {"measurement": "Percent Inhibition (collagenase)", "setting": "human recombinant MMP-1; 0.075%", "value": "4 ± 0", "unit": "%"},
      {"measurement": "Percent Inhibition (collagenase)", "setting": "human recombinant MMP-1; 0.08%", "value": "7 ± 1", "unit": "%"},
      {"measurement": "% Prevention of genomic DNA CPD formation", "setting": "[3]; 0.0375%", "value": 63, "unit": "%"},
      {"measurement": "% Prevention of genomic DNA CPD formation", "setting": "[3]; 0.075%", "value": 75, "unit": "%"},
      {"measurement": "CPD in genomic DNA", "setting": "[3]; 0.0375%", "value": "1.601 ± 0.180", "unit": "ng/mL"},
      {"measurement": "CPD in genomic DNA", "setting": "[3]; 0.075%", "value": "1.115 ± 0.085", "unit": "ng/mL"}
    ]},
    {"smiles": "Cc1c(C)c2c(c(C)c1O)CCC(C)(C(=O)O)O2", "note": "(stereo not drawn) [Trolox, reference compound]", "values": [
      {"measurement": "% Prevention of genomic DNA CPD formation", "setting": "[3]; 150 ug/ml", "value": 67, "unit": "%"},
      {"measurement": "CPD in genomic DNA", "setting": "[3]; 150 ug/ml", "value": "1.439 ± 0.088", "unit": "ng/mL"}
    ]}
  ]
}
